Test [1] relates to PLD activity in 786-O cells. Nature of the test: PLD activity in 786-O cells. Particulars: no activated Ras. It is filed as cell-based, human. An excerpt: The PLD activity elevated in response to stress in the MDA-MB-231 cells was dependent on Ras in the MDA-MB-231, and also in the Calu1, and T24 cancer cells (Shi et al., “Elevated Phospholipase D Activity in Human Cancer Cells with Activating Ras Mutations Provides Survival Signal,” Cancer Lett. 258:268-75 (2007), which is hereby incorporated by reference in its entirety). […] This is interesting in that there is an activated K-Ras gene in the MDA-MB-231 cells. Similarly, there are activating mutations to Ras genes in both the Calu1 and T24 cells. It was recently reported that the PLD activity in the T24 cells, where H-Ras is activated, is dependent on the expression of H-Ras; and the PLD activity in the Calu-1 cells, where K-Ras is activated, is dependent on the expression of K-Ras (Shi et al., “Elevated Phospholipase D Activity in Human Cancer Cells with Activating Ras Mutations Provides Survival Signal,” Cancer Lett. 258:268-75 (2007), which is hereby incorporated by reference in its entirety). […] However, it is also possible that the increased GTP bound Ras represents activation of the non-mutated Ras—either the Ras protein encoded by the non-mutated wild type allele or other Ras isoforms. In the case of the MDA-MD-231 that would mean that H-Ras was being activated or the wild type K-Ras encoded by the non-mutant allele. […]

In a further test the test system is T24 cells. Description: Cell viability and PARP cleavage in T24 cells. In kind it is cell-based, human. Particulars: honokiol 20 μM, 0.5% serum. Here is the method:
In FIG. 17A, T24 and Calu1 cells (obtained from the American Type Culture Collection) were plated in DMEM containing 10% serum for 48 hr and then shifted to either 10% serum or 0.5% serum overnight as indicated. Honokiol (20 μM) or control ethanol was then added for 4 hr as indicated. [^3H]-Myristate was added with the honokiol. After 4 hr, BtOH (0.7%) was added for 20 min, at which time the cells were harvested and the level of phosphatidyl-BtOH (P-Bt) was determined as in FIGS. 12A-C. The experiments shown are representative of at least two independent experiments. In FIG. 17B, T24 and Calu-1 cells were plated in DMEM with 10% serum for 48 hr then changed to DMEM containing either 10% or 0.5% serum overnight as indicated. Honokiol (20 μM) or control ethanol was then added either at the time of changing media (24 hr), or 4 hr before harvesting as in FIGS. 14A-E, at which time the cells were examined for cell viability or PARD cleavage. […]
Cell viability was determined by trypan blue exclusion. […] After 10 min, trypan blue uptake (dead cells) was determined by counting on a hemocytometer. Apoptosis was evaluated by examination of cleavage of the caspase 3 substrate PARP as described previously (Chen et al., “Alternative Phospholipase D/mTOR Survival Signal in Human Breast Cancer Cells,” Oncogene 24:672-9 (2005), which is hereby incorporated by reference in its entirety). […]

Take `C=CCc1ccc(O)c(-c2ccc(O)c(CC=C)c2)c1` [honokiol, Honokiol]: in test [1], the PLD activity result is recorded as “blocks”. In the test with T24 cells, the PARP cleavage result was “induced” and the cell death result is listed as “induced”.

The record behind these values is patent US20120301895A1, “METHODS OF MODULATING BINDING OF SON OF SEVENLESS TO PHOSPHATIDIC ACID AND IDENTIFYING COMPOUNDS THAT MODULATE SUCH BINDING” (THE RESEARCH FOUNDATION OF STATE UNIVERSITY OF NEW YORK, priority 2007, published 2012).
